Source: US6630120B1, “Agents to increase the uptake of pharmaceuticals and diagnostic substances into solid tumors” (priority 1999, dated 2003)
Read-outs that look alike come from different tables or passages of the source.

Key:
implanted tumor and lung = assay: Retention of 14C-carboplatin in solid tumors and in lung; type: in vivo, rat; conditions: FIG. 8
Procedure: The carboplatin was administered two minutes into a five minute Cereport™ infusion.

[1] = tested on: MAT B-III metastatic lung tumors; assay: Animal survival with MAT B-III metastatic lung tumors after carboplatin and Cereport; type: in vivo, rat; conditions: FIG. 13
Procedure: MAT B-III cells were introduced into the lungs of 12 female F-344 Fisher rats by intrajugular injections of either 1×10^5 or 1×10^6 cells in 200 μl suspensions. The cells and animals were maintained and handled as described in Example 1. At various times following the injections, the number of surface tumor colonies on the lungs was assessed. Tumors were visually counted by injecting India ink into the trachea of the animals.
Finally, the effects of the administration of carboplatin and Cereport™ on the survival of animals who had been subjected to the implantation of MAT B-III metastatic lung surface tumors was assessed. In this study, 1×10^6 MAT B-III cells as a 200 μl suspension were implanted by intrajugular injection in 54 male Fischer rats. Sixteen days later, indwelling cannulae were inserted in the previously implanted jugular vein. On days 16 and 23, the animals received a continuous infusion of 5 mg/kg of carboplatin over a 15 minute period. Immediately following the 15 minute carboplatin infusion, the animals received a 10 minute continuous infusion of either saline or Cereport (1.5 μg/kg). The survival rates for the animals were then monitored.

[2] = tested on: MAT B (III) rat mammary adenocarcinoma tumor implanted in the flank
Procedure: A series of studies were carried out on rat hosts in which suspended tumor cells had been subcutaneously implanted in the flank of the animal to create a solid tumor in situ. The effects of the administration of Cereport™ on the incorporation of ^14C-carboplatin into the tumor were evaluated.
Male Fischer rats (170-220 g; Taconic Farms, Germantown, N.Y.) were used in these studies. Animals were housed in pairs in polypropylene cages with free access to food and water. The vivarium was maintained on a 12 h light: 12 h dark cycle with a room temperature of 22±1° C. and relative humidity level of 50±5%.
The MAT B (III) cell line (ATCC CRL-1666), a rat ascites mammary adenocarcinoma, was used to produce peripheral tumors upon implantation in rats. Cells were grown and maintained at 37° C. in a 95% air/5% CO2 humidified atmosphere using McCoy's medium 5A (GIBCO) supplemented with 20 mM HEPES, 1/2X Antibody-Antimycotic, and 10% heat-inactivated Fetal Bovine Serum.
Immediately prior to implantation, MAT B-III cells were suspended in 1.2% methyl cellulose at a density of 5×10^6/ml. 200 μl of this suspension (1×10^6 cells) was injected subcutaneously into the flank of each animal using a 22G needle.
One week after tumor implantation, and under urethane anesthesia (1.8 g/kg; i.p.), cannulae (PE50, Clay Adams, Bectin Dickinson, Sparks, Md.) were placed in the jugular vein for drug administration and both femoral arteries for the measurement of physiological parameters.
Cereport™ (RMP-7, Alkermes, Inc., Cambridge, Mass.) and ^14C-carboplatin or -dextran (SA=144 μCi/mg and 1.08 μCi/mg respectively) were dissolved in sterile 0.9% saline and infused intravenously using a syringe pump at a rate of 0.05 ml/min over the entire administration period. Using the human clinical protocol as a basis, ^14C-carboplatin or dextran (100 μCi/kg) was infused for 15 minutes followed immediately by a 10 minute infusion of Cereport™. Throughout the experiment, body temperature was maintained normothermic (37.0±1.0° C.) and arterial blood gases, pH, and blood pressure were monitored. Animals with physiological values outside the normal ranges were not used.
At the end of the drug administration protocol, rats were sacrificed and the peripheral tumor was rapidly removed. A 1-2 mm thick slice was cut from the center of tumor. The slice was then divided into two equal parts comprising the center of the dissected piece (inner tumor) and the outside edge (outer tumor). Each tumor sample was weighed and placed into a scintillation vial and the amount of radioactivity (nCi/g) was computed for each region using scintillation counts as a measure of the radioactivity.

[3] = tested on: MAT B-III tumor in rear flank or mammary fat pads; conditions: FIG. 5; female Fischer rats; 15 min carboplatin then 10 min Cereport 1.0 μg/kg
Procedure: MAT B-III cells (1×10^6) were implanted in two anatomically distinct sites in female Fischer rats. The tumor cells were implanted into either the subcutaneous space of the rear flank or orthotopically into mammary fat pads. Seven days later, the animals received a 15 minute i.v. infusion of ^14C-Carboplatin (100 μCi/kg) followed immediately by a 10 minute infusion of either saline or Cereport™ at 1.0 μg/kg. Following the saline or Cereport™ infusion, the tumor was rapidly removed and dissected into inner and outer regions. The amount of radioactivity of each tumor region was determined by scintillation counts.

[4] = tested on: MAT B-III tumor implanted into the liver; conditions: FIG. 6
Procedure: MAT B-III cells (1×10^6) were implanted directly into the liver of male Fischer rats using a 25G needle and 1 ml tuberculin syringe. Fourteen days later, the animals received a 15 minute i.v. infusion of ^14C-carboplatin (100 μCi/kg) followed immediately by a 10 minute infusion of either saline or Cereport™ at 1.0 μg/kg. Following the saline or Cereport™ infusion, the liver was rapidly removed. The tumor was dissected free of the surrounding liver tissue and divided into inner and outer regions. A 1 mm strip of liver that immediately surrounded the tumor (inner ring) and the adjacent 1 mm strip of liver (outer ring) were also removed and assayed. In addition, an equivalent strip of liver from the untreated lobe, was removed and assayed. This liver strip served as a control.

[5] = tested on: implanted tumor and various organs; conditions: FIG. 7; Cereport 1 μg/kg; carboplatin bolus two minutes into five minute Cereport infusion
Procedure: The carboplatin was administered as a bolus two minutes into a five minute Cereport™ infusion.

Walker 256 tumor = conditions: FIG. 9; male Wistar rats; 15 min carboplatin then 10 min Cereport 1.0 μg/kg
Procedure: Walker 256 cells (ATCC CCL-38) (1×10^7) were implanted into the subcutaneous space of the rear flank of male Wistar rats to create a solid tumor in situ in the same manner as previously described for the MAT B-III cells. Eight days later, the animals received a 15 minute i.v. infusion of ^14C-carboplatin (100 μCi/kg) followed immediately by a 10 minute infusion of either saline or Cereport™ at 1.0 μg/kg. Following the saline or Cereport™ infusion, the tumor was rapidly removed and dissected into inner and outer regions. The amount of radioactivity of each tumor region was determined by scintillation counts.

implanted tumor [6] = conditions: FIG. 10
Procedure: In some instances, Cereport™ is administered in addition to carboplatin. The carboplatin was infused for 15-minutes followed immediately by a 10 minute infusion of Cereport™ at 1.5 μg/kg.

implanted tumor [7] = conditions: FIG. 14; Cereport infusion for 10 minutes at 1 μg/kg
From the text: Interstitial fluid pressure is a severe impediment for administered substances into tumor interstitial spaces from the bloodstream.

[8] = target: angiotensin converting enzyme (ACE) (Homo sapiens, UniProt P12821); conditions: general statement, no method given; cited from earlier work
[9] = eighth day, carboplatin plus Cereport 1.5 μg/kg

Chain of angiotensin converting enzyme (ACE) (P12821 30-1306, species assumed): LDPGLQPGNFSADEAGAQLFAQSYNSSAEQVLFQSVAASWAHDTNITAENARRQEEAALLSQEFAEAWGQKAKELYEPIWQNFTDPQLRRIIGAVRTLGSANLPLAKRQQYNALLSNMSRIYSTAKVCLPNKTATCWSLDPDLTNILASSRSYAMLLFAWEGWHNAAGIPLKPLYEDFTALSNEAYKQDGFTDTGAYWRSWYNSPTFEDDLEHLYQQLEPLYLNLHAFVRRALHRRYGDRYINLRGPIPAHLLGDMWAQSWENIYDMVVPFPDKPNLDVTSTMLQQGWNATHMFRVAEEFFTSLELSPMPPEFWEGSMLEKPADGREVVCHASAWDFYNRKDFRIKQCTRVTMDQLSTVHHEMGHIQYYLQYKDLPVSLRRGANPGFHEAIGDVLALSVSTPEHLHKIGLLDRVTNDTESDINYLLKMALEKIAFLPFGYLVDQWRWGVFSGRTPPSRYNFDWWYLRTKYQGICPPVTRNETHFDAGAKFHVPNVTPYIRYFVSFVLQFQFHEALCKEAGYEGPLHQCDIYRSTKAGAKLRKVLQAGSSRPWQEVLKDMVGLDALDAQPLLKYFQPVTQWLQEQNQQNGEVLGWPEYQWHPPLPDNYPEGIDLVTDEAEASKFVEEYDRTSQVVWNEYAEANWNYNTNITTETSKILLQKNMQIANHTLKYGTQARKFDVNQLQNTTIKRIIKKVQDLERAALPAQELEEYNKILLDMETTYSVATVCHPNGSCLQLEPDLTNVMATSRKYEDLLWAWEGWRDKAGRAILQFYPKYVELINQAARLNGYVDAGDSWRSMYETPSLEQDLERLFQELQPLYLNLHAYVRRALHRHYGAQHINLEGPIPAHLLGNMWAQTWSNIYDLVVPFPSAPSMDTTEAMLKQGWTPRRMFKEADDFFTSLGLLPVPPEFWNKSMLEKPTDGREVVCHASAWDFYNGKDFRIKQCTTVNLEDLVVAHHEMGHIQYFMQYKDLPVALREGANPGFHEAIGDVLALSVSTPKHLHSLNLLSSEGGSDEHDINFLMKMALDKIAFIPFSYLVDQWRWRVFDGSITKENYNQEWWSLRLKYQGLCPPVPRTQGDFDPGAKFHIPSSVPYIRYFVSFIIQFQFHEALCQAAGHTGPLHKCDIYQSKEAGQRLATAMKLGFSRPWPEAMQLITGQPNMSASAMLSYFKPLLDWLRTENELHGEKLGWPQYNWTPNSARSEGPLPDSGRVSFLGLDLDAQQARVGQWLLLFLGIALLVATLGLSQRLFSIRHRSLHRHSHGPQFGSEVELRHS

Q: Which “retention of carboplatin in tumor tissue” value (implanted tumor and lung; after Cereport administration, carboplatin two minutes into five minute Cereport infusion) does the source give for `N.N.O=C([O-])C1(C(=O)[O-])CCC1.[Pt+2]` [carboplatin] here?
A: at least 90 minutes

Q: And the “retention of carboplatin in lung” value (implanted tumor and lung; after the initial uptake following Cereport administration)?
A: not retained

Q: What about the “prolongation of survival versus no carboplatin” value ([1]; carboplatin 5 mg/kg by itself (followed by saline) on days 16 and 23) of the same compound?
A: approximately 10 days

Q: Which “carboplatin uptake into inner tumor and outer tumor” value ([2]; FIG. 1, carboplatin bolus two minutes into a ten minute Cereport infusion, three Cereport infusion amounts, vs no Cereport) does the source give for “arginine-proline-hydroxyproline-glycine-thienylalanine-serine-proline-4-Me-tyrosineψ(CH2NH)arginine [Cereport™]” here?
A: significantly taken up

Q: What about the “carboplatin uptake into inner tumor and outer tumor” value ([2]; FIG. 2, carboplatin bolus two minutes into a five minute Cereport infusion, Cereport 0.5 μg/kg) of the same compound?
A: not significantly taken up

Q: What about the “carboplatin uptake into inner tumor and outer tumor” value ([2]; FIG. 2, carboplatin bolus two minutes into a five minute Cereport infusion, Cereport 0.75 μg/kg) of the same compound?
A: significantly taken up

Q: And the “carboplatin uptake into inner tumor and outer tumor” value ([2]; FIG. 2, carboplatin bolus two minutes into a five minute Cereport infusion, Cereport 1.0 μg/kg)?
A: significantly taken up

Q: What about the “carboplatin uptake into inner tumor and outer tumor” value ([2]; FIG. 2, carboplatin bolus two minutes into a five minute Cereport infusion, Cereport 1.75 μg/kg) of the same compound?
A: significantly taken up

Q: And the “carboplatin uptake into inner tumor and outer tumor” value ([2]; FIG. 2, carboplatin bolus two minutes into a five minute Cereport infusion, Cereport 2.5 μg/kg)?
A: significantly taken up

Q: What about the “carboplatin uptake into inner tumor and outer tumor” value ([2]; FIG. 2, carboplatin bolus two minutes into a five minute Cereport infusion, Cereport 5.0 μg/kg) of the same compound?
A: not significantly taken up

Q: What about the “carboplatin uptake into inner tumor and outer tumor” value ([2]; FIG. 3, carboplatin infused 15 minutes prior to Cereport, Cereport 0.36 μg/kg) of the same compound?
A: possible exception

Q: What about the “carboplatin uptake into inner tumor and outer tumor” value ([2]; FIG. 3, carboplatin infused 15 minutes prior to Cereport, all Cereport doses other than 0.36 μg/kg) of the same compound?
A: significantly taken up

Q: And the “dextran (MW 70 kDa) uptake into inner tumor and outer tumor” value ([2]; FIG. 4, dextran infused 15 minutes prior to Cereport, three Cereport infusion amounts, vs no Cereport)?
A: significantly taken up

Q: And the “carboplatin uptake into implanted tumor located in the flank” value [3]?
A: significantly taken up

Q: And the “carboplatin uptake into implanted tumor located in the mammary pad” value [3]?
A: significantly taken up

Q: And the “carboplatin uptake into tumor implanted in the liver” value ([4]; 15 min carboplatin then 10 min Cereport 1.0 μg/kg)?
A: significantly taken up

Q: And the “carboplatin uptake into liver tissue adjacent to the tumor” value ([4]; inner and outer ring liver strips, Cereport 1.0 μg/kg)?
A: does not have a significant effect

Q: What about the “carboplatin uptake into control strip of liver” value ([4]; strip from untreated lobe, Cereport 1.0 μg/kg) of the same compound?
A: does not have a significant effect

Q: What about the “carboplatin uptake in tumor tissue compared with heart, lung and liver” value [5] of the same compound?
A: far surpasses

Q: And the “carboplatin uptake into heart, lung and liver” value [5]?
A: some uptake

Q: And the “carboplatin uptake into inner and outer region of Walker 256 tumor” value (Walker 256 tumor)?
A: significantly taken up

Q: And the “regression of the implanted tumor in comparison to carboplatin alone” value (implanted tumor [6]; 15 min carboplatin then 10 min Cereport 1.5 μg/kg)?
A: markedly cause regression

Q: What about the “tumor size relative to size if Cereport had not been administered with the carboplatin” value (implanted tumor [6]; [9]) of the same compound?
A: approximately one half

Q: What about the “tumor size relative to size if no carboplatin had been administered” value (implanted tumor [6]; [9]) of the same compound?
A: approximately one third

Q: What about the “additional extension of survival profile beyond carboplatin alone” value ([1]; carboplatin 5 mg/kg followed by Cereport 1.5 μg/kg on days 16 and 23) of the same compound?
A: approximately 10 days

Q: And the “decrease of interstitial fluid pressure in implanted tumors” value (implanted tumor [7])?
A: up to 40%

Q: What about the “degradation by angiotensin converting enzyme (ACE)” value [8] of the same compound?
A: not significantly degraded
